The test system of assay [1] is B16/BL6 cells. As to the kind of experiment: MHC class-I molecule expression promoting activity. Type of assay: cell-based, mouse. The following applies: mean of a plurality of assays; 72 hours.
Experimental: The cancer cells used were mouse melanoma cells, B16/BL6 cells, provided by, the National Cancer Institute, U.S.A. Said cells were cultivated in MEM media supplemented with 10% FBS at 37° C. in the presence of 5% carbon dioxide in an humidified incubator.
A compound to be tested was preliminarily dissolved in dimethyl sulfoxide (DMSO) and adjusted to a concentration of 100 mM or 10 mM (source solution).
Said B16/BL6 cells were inoculated on 96 well microplate at a cell density of 5000 cells per well, each well containing 200 μl of said medium. […] Thereafter, each well was once washed with PBS (phosphate buffered saline) and floating cells and the medium were removed. Then, the well was treated with 0.1% glutaraldehyde solution for 3 minutes to fix the cells.
The amount of MHC class-I molecule expressed on the surface of the fixed cells was measured by the following method. Anti-H-2K^bD^bD^d antibody, which is an antibody against mouse MHC classI molecule (commercially available from Meiji Milk Co., Ltd), was used as a primary antibody, biotinylated anti-mouse IgG+M (commercially available from Chemicon) was used as a secondary antibody, and streptavidin-β-galactosidase conjugate (commercially available from BRL) was reacted as a labelling enzyme. The amount of the thus labelled enzyme β-galactosidase was measured in a microplate reader by recording the fluorescent intensity (excitation: 365 nm, fluorescence: 450 nm) derived from the enzymaticreaction product using 4-methylumbelliferyl-β-D-galactoside (commercially available from Nacalai Tesque) as a substrate. […] The value obtained by subtracting said background level from the, actually measured value (an apparent value including the background level) was the true measurement reflecting the amount of expressed MHC class-I molecule.
A group without the addition of any compound to be tested was used as a reference group and the measurement of MHC class-I molecule expressed in said group was used as a standard value. The amount of MHC class-I molecule expressed at a concentration of addition of each test compound is shown as a relative amount, said standard value taken as one (1). For each compound to be tested, various concentrations of addition were selected to investigate the dependency of MHC class-I molecule expression promoting action on the concentration of addition.
Assay [2] has as its system Colon 26. Nature of the assay: In vivo anti-cancer activity in mouse (solid tumor system). The note with it: measured day-14, estimated from diameters. On the procedure: (§1) Three mouse cancers Colon26, Meth A and B16 were used to evaluate in vivo anti-cancer activity of the cyclic tetrapeptide compounds according to the present invention in a solid tumor system. The cancer cells were cultured in a conventional manner, suspended in PBS and intradermally transplanted into a mouse ventral portion (10^5). The mouse used was CDF1, Balb/c or BDF1 (male, 7 weeks in age) for Colon 26, Meth A or B16, respectively. On day-4, 7 and 10 for Colon 26, or on day-7, 10, 13 and 16 for Meth A and B16 (day-0 being the day of cancer transplantation), a given amount of solution containing a predetermined amount of a compound to be tested was administered into the tail vein (10, 3 and 1 mg/kg; 2 ml/kg). In this example, the solution for administration used was PBS suspension (as neutralized with NaOH). On day-14 for Colon26 and on day-21 for Meth A and B16, the size of tumor (shorter and longer diameters) was measured. The tumor weight was estimated from the value obtained by calculation from the equation: ½×longer diameter×shorter diameter^2. Anti-tumor effects were based on the estimated tumor weight used as a measure and a tumor weight was estimated for a control group to which an equal amount of a drug-free solution was added; % inhibition was determined on the basis of the difference between the estimated tumor weights for the treated and control groups.

Assay [3] has as its system B16. The assay is described as above. The following applies: measured day-21, estimated from diameters. The method, then: as §1
Assay [4] has as its system Meth A. The assay is described as above. On the procedure:
as §1

Molecules are shown by their SMILES. Non-standard residues stand in square brackets, D forms with d. Residues, ends and D or L forms follow the SMILES beside them. *: point of attachment. Asu = N[C@@H](CCCCCC(=O)O)C(=O)O; NHOH = ON*

As to `CC[C@H](C)[C@@H]1NC(=O)[C@@H](Cc2ccc(OC)cc2)NC(=O)[C@H](CCCCCC(=O)NO)NC(=O)[C@H]2CCCN2C1=O` [HDA-31, cyclo(-L-Asu(NHOH)-D-Tyr(Me)-L-Ile-D-Pro-)] (cyclo([Asu](NHOH)[dY](Me)I[dP])), in assay [1], the “conc. for 2-fold expression (nM) mean” value came out at 1.41 nM. For the same compound, the “tumor weight” value in assay [2] (Colon 26, 1 mg/kg tail vein on day-4, 7 and 10) is listed as 756 ± 25 mg; in assay [2] (Colon 26, 3 mg/kg tail vein on day-4, 7 and 10), 677 ± 155 mg; in assay [2] (Colon 26, 10 mg/kg tail vein on day-4, 7 and 10), 726 ± 123 mg; in assay [3] (B16, 1 mg/kg tail vein on day-7, 10, 13 and 16), 258 ± 184 mg; in assay [3] (B16, 3 mg/kg tail vein on day-7, 10, 13 and 16), 280 ± 152 mg; in assay [3] (B16, 10 mg/kg tail vein on day-7, 10, 13 and 16) it was 120 ± 112 mg. The “tumor weight” value is given as 2100 ± 570 mg in assay [4] (1 mg/kg tail vein on day-7, 10, 13 and 16, measured day-21, estimated from diameters); 1230 ± 500 mg in assay [4] (3 mg/kg tail vein on day-7, 10, 13 and 16, measured day-21, estimated from diameters); 1470 ± 500 mg in assay [4] (10 mg/kg tail vein on day-7, 10, 13 and 16, measured day-21, estimated from diameters).

These data come from patent publication US6399568B1, “Cyclic tetrapeptide derivatives and medicinal use thereof” (Japan Energy Corporation, priority 1997, dated 2002).
